Values after ≈ are worked out from the molar mass of the structure shown.
Columns and labels:
Assay type in all cases: functional
Pseudomonas aeruginosa [1] = assay: Antibacterial activity against wild type Pseudomonas aeruginosa PAO1 K767 by CLSI-based broth microdilution assay
Escherichia coli [2] = assay: Antibacterial activity against Escherichia coli BW25113/JW0451-2 harboring AcrB deletion mutant by CLSI-based broth microdilution assay
Pseudomonas aeruginosa [3] = assay: Antibacterial activity against Pseudomonas aeruginosa NB52023 harboring gyrA T83I mutant/ParC S87L mutant by CLSI-based broth microdilution assay
Klebsiella pneumoniae = assay: Antibacterial activity against wild type Klebsiella pneumoniae ATCC 43816 by CLSI-based broth microdilution assay
Pseudomonas aeruginosa [4] = assay: Antibacterial activity against Pseudomonas aeruginosa K1542/K767 harboring MexB/MexXY deletion mutant by CLSI-based broth microdilution assay
Escherichia coli [5] = assay: Antibacterial activity against wild type Escherichia coli ATCC 25922 at pH 7.4 by CLSI-based broth microdilution assay
Escherichia coli [6] = assay: Ratio of MIC for antibacterial activity against wild type Escherichia coli ATCC 25922 at pH 5.8 to MIC for antibacterial activity against wild type Escherichia coli ATCC 25922 at pH 7.4
Escherichia coli [7] = assay: Antibacterial activity against wild type Escherichia coli ATCC 25922 at pH 5.8 by CLSI-based broth microdilution assay

Cc1c(N2CCNCC2)c(F)cc2c(CN)cc(=O)n(C3CC3)c12
MIC (Pseudomonas aeruginosa [1]): 4 to 8 µg/mL (≈ 12.1 to 24.2 µM)
MIC (Escherichia coli [2]): 0.06 to 1 µg/mL (≈ 0.182 to 3.03 µM)
MIC (Pseudomonas aeruginosa [3]): 1 to 2 µg/mL (≈ 3.03 to 6.05 µM)
MIC (Klebsiella pneumoniae): 0.5 to 2 µg/mL (≈ 1.51 to 6.05 µM)
MIC (Pseudomonas aeruginosa [4]): 0.5 to 1 µg/mL (≈ 1.51 to 3.03 µM)
MIC (Escherichia coli [5]): 0.25 to 4 µg/mL (≈ 0.757 to 12.1 µM)

Cc1c(N2CC3CC3(N)C2)c(F)cc2c(CN)c(Cl)c(=O)n(C3CC3)c12 (configuration not stated)
MIC (Pseudomonas aeruginosa [1]): 8 µg/mL (≈ 21.2 µM)
MIC (Escherichia coli [2]): 0.06 µg/mL (≈ 0.159 µM)
MIC (Pseudomonas aeruginosa [3]): 2 µg/mL (≈ 5.31 µM)
MIC (Klebsiella pneumoniae): 0.5 µg/mL (≈ 1.33 µM)
MIC (Pseudomonas aeruginosa [4]): 1 µg/mL (≈ 2.65 µM)
MIC (Escherichia coli [5]): 0.25 µg/mL (≈ 0.663 µM)

Cc1c(N2CC[C@H](O)C2)c(F)cc2c(CN)cc(=O)n(C3CC3)c12
MIC (Pseudomonas aeruginosa [1]): 4 µg/mL (≈ 12.1 µM)
MIC (Escherichia coli [2]): ≤ 0.03 µg/mL
Ratio (Escherichia coli [6]): 16
MIC (Pseudomonas aeruginosa [3]): 1 µg/mL (≈ 3.02 µM)
MIC (Klebsiella pneumoniae): 1 µg/mL (≈ 3.02 µM)
MIC (Pseudomonas aeruginosa [4]): 0.25 µg/mL (≈ 0.754 µM)
MIC (Escherichia coli [5]): 0.5 µg/mL (≈ 1.51 µM)
MIC (Escherichia coli [7]): 8 µg/mL (≈ 24.1 µM)

NCc1cc(=O)n(C2CC2)c2cc(N3CC4CC4(N)C3)c(F)cc12 (configuration not stated)
MIC (Pseudomonas aeruginosa [1]): 16 µg/mL (≈ 48.7 µM)
MIC (Escherichia coli [2]): 0.5 µg/mL (≈ 1.52 µM)
MIC (Pseudomonas aeruginosa [3]): 4 µg/mL (≈ 12.2 µM)
MIC (Klebsiella pneumoniae): 4 µg/mL (≈ 12.2 µM)
MIC (Pseudomonas aeruginosa [4]): 2 µg/mL (≈ 6.09 µM)
MIC (Escherichia coli [5]): 1 µg/mL (≈ 3.05 µM)

Cc1c(CN)c2cc(F)c(N3CC4CC4(N)C3)c(C)c2n(C2CC2)c1=O (configuration not stated)
MIC (Pseudomonas aeruginosa [1]): 8 µg/mL (≈ 22.4 µM)
MIC (Escherichia coli [2]): 0.125 µg/mL (≈ 0.351 µM)
MIC (Pseudomonas aeruginosa [3]): 2 µg/mL (≈ 5.61 µM)
MIC (Klebsiella pneumoniae): 1 µg/mL (≈ 2.81 µM)
MIC (Pseudomonas aeruginosa [4]): 1 µg/mL (≈ 2.81 µM)
MIC (Escherichia coli [5]): 0.25 µg/mL (≈ 0.701 µM)

Cc1c(N2C[C@@]3(C)C[C@@]3(N)C2)c(F)cc2c(CN)cc(=O)n(C3CC3)c12 (racemic)
MIC (Pseudomonas aeruginosa [1]): 4 µg/mL (≈ 11.2 µM)
MIC (Escherichia coli [2]): ≤ 0.03 µg/mL
MIC (Pseudomonas aeruginosa [3]): 2 µg/mL (≈ 5.61 µM)
MIC (Klebsiella pneumoniae): 0.25 µg/mL (≈ 0.701 µM)
MIC (Pseudomonas aeruginosa [4]): 1 µg/mL (≈ 2.81 µM)
MIC (Escherichia coli [5]): 0.125 µg/mL (≈ 0.351 µM)

Cc1c(N2C[C@H]3CC[C@@]3(N)C2)c(F)cc2c(CN)cc(=O)n(C3CC3)c12 (racemic)
MIC (Pseudomonas aeruginosa [1]): 8 µg/mL (≈ 22.4 µM)
MIC (Escherichia coli [2]): 0.25 µg/mL (≈ 0.701 µM)
MIC (Pseudomonas aeruginosa [3]): 4 µg/mL (≈ 11.2 µM)
MIC (Klebsiella pneumoniae): 4 µg/mL (≈ 11.2 µM)
MIC (Pseudomonas aeruginosa [4]): 2 µg/mL (≈ 5.61 µM)
MIC (Escherichia coli [5]): 2 µg/mL (≈ 5.61 µM)

Cc1c(N2CC[C@@H]([C@H](C)N)C2)c(F)cc2c(OCCN(C)C)cc(=O)n(C3CC3)c12
MIC (Pseudomonas aeruginosa [1]): 8 µg/mL (≈ 19.2 µM)
MIC (Pseudomonas aeruginosa [3]): 8 µg/mL (≈ 19.2 µM)
MIC (Klebsiella pneumoniae): 4 µg/mL (≈ 9.6 µM)
MIC (Pseudomonas aeruginosa [4]): 4 µg/mL (≈ 9.6 µM)
MIC (Escherichia coli [5]): 1 µg/mL (≈ 2.4 µM)

Cc1c(N2CC[C@@H]([C@H](C)N)C2)c(F)cc2c(Cl)cc(=O)n(C3CC3)c12
MIC (Pseudomonas aeruginosa [1]): 8 µg/mL (≈ 22 µM)
MIC (Escherichia coli [2]): 0.06 µg/mL (≈ 0.165 µM)
MIC (Pseudomonas aeruginosa [3]): 8 µg/mL (≈ 22 µM)
MIC (Klebsiella pneumoniae): 4 µg/mL (≈ 11 µM)
MIC (Pseudomonas aeruginosa [4]): 4 µg/mL (≈ 11 µM)
MIC (Escherichia coli [5]): 2 µg/mL (≈ 5.5 µM)

COc1c(N2CC3(C)CC3(N)C2)c(F)cc2c(CN)cc(=O)n(C3CC3)c12 (configuration not stated)
MIC (Pseudomonas aeruginosa [1]): 32 µg/mL (≈ 85.9 µM)
MIC (Escherichia coli [2]): 0.25 µg/mL (≈ 0.671 µM)
MIC (Pseudomonas aeruginosa [3]): 16 µg/mL (≈ 43 µM)
MIC (Klebsiella pneumoniae): 4 µg/mL (≈ 10.7 µM)
MIC (Pseudomonas aeruginosa [4]): 8 µg/mL (≈ 21.5 µM)
MIC (Escherichia coli [5]): 1 µg/mL (≈ 2.68 µM)

Cc1c(N2CC[C@@H]([C@H](C)N)C2)c(F)cc2c(C#N)cc(=O)n(C3CC3)c12
MIC (Pseudomonas aeruginosa [1]): 4 µg/mL (≈ 11.3 µM)
MIC (Escherichia coli [2]): ≤ 0.03 µg/mL
MIC (Pseudomonas aeruginosa [3]): 1 µg/mL (≈ 2.82 µM)
MIC (Klebsiella pneumoniae): 2 µg/mL (≈ 5.64 µM)
MIC (Pseudomonas aeruginosa [4]): 1 µg/mL (≈ 2.82 µM)
MIC (Escherichia coli [5]): 1 µg/mL (≈ 2.82 µM)

Cc1c(N2CC[C@@H]([C@H](C)N)C2)c(F)cc2c(CO)cc(=O)n(C3CC3)c12
MIC (Pseudomonas aeruginosa [1]): 16 µg/mL (≈ 44.5 µM)
MIC (Escherichia coli [2]): 0.25 µg/mL (≈ 0.696 µM)
MIC (Pseudomonas aeruginosa [3]): 8 µg/mL (≈ 22.3 µM)
MIC (Klebsiella pneumoniae): 32 µg/mL (≈ 89 µM)
MIC (Pseudomonas aeruginosa [4]): 4 µg/mL (≈ 11.1 µM)
MIC (Escherichia coli [5]): 16 µg/mL (≈ 44.5 µM)

Cc1c(N2CC[C@@H](N)C2)c(F)cc2c(CN)cc(=O)n(C3CC3)c12
MIC (Pseudomonas aeruginosa [1]): > 32 µg/mL
MIC (Escherichia coli [2]): 2 µg/mL (≈ 6.05 µM)
MIC (Pseudomonas aeruginosa [3]): 32 µg/mL (≈ 96.9 µM)
MIC (Klebsiella pneumoniae): 8 µg/mL (≈ 24.2 µM)
MIC (Pseudomonas aeruginosa [4]): 8 µg/mL (≈ 24.2 µM)
MIC (Escherichia coli [5]): 16 µg/mL (≈ 48.4 µM)

N#Cc1c(N2CC3CC3(N)C2)c(F)cc2c(CN)cc(=O)n(C3CC3)c12 (configuration not stated)
MIC (Pseudomonas aeruginosa [1]): 16 µg/mL (≈ 45.3 µM)
MIC (Escherichia coli [2]): 0.125 µg/mL (≈ 0.354 µM)
MIC (Pseudomonas aeruginosa [3]): 4 µg/mL (≈ 11.3 µM)
MIC (Klebsiella pneumoniae): 2 µg/mL (≈ 5.66 µM)
MIC (Pseudomonas aeruginosa [4]): 2 µg/mL (≈ 5.66 µM)
MIC (Escherichia coli [5]): 1 µg/mL (≈ 2.83 µM)

Cc1c(N2CCC3CC3(N)C2)c(F)cc2c(CN)cc(=O)n(C3CC3)c12 (configuration not stated)
MIC (Pseudomonas aeruginosa [1]): 16 µg/mL (≈ 44.9 µM)
MIC (Escherichia coli [2]): 1 µg/mL (≈ 2.81 µM)
MIC (Pseudomonas aeruginosa [3]): 16 µg/mL (≈ 44.9 µM)
MIC (Klebsiella pneumoniae): 4 µg/mL (≈ 11.2 µM)
MIC (Pseudomonas aeruginosa [4]): 4 µg/mL (≈ 11.2 µM)
MIC (Escherichia coli [5]): 4 µg/mL (≈ 11.2 µM)

Cc1c(N2CCCC2)c(F)cc2c(CN)cc(=O)n(C3CC3)c12
MIC (Pseudomonas aeruginosa [1]): 32 µg/mL (≈ 101 µM)
MIC (Escherichia coli [2]): 0.06 µg/mL (≈ 0.19 µM)
MIC (Pseudomonas aeruginosa [3]): 8 µg/mL (≈ 25.4 µM)
MIC (Klebsiella pneumoniae): 2 µg/mL (≈ 6.34 µM)
MIC (Pseudomonas aeruginosa [4]): 4 µg/mL (≈ 12.7 µM)
MIC (Escherichia coli [5]): 1 µg/mL (≈ 3.17 µM)
